Tests used:
Assay in all cases: Bliss excess, mean over the matrix (fraction); higher = more synergy
42-MG-BA (Glioblastoma) = test system: 42-MG-BA (Glioblastoma)
Outline: (§1)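 Cell lines in DMEM/F12 or RPMI with 10% FBS were plated in 1536-well plates, held 24 hours at 37°C, 5% CO2, then given two-drug dose matrices for 72 hours (DMSO typically 0.2%). Viability was read by CellTiter-Glo 2.0 luminescence and scaled as inhibition from 0 (vehicle wells) to 1 (blank wells). Combination Emax is the second-highest inhibition in the matrix; Bliss excess is observed combination effect minus expected EA + EB − EA·EB, EA and EB being single-agent effects.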

[1] = test system: Daoy (Other Solid Carcinomas)
Outline: as §1

[2] = test system: HO-1-N-1 (Oral Cavity Carcinoma)
Outline: as §1

[3] = test system: Hs-578-T (Breast Carcinoma)
Outline: as §1

[4] = test system: HuP-T4 (Pancreatic Carcinoma)
Outline: as §1

[5] = test system: KYSE-520 (Esophageal Squamous Cell Carcinoma)
Outline: as §1

[6] = test system: MDA-MB-361 (Breast Carcinoma)
Outline: as §1

[7] = test system: MFE-296 (Endometrial Carcinoma)
Outline: as §1

NOS-1 (Osteosarcoma) = test system: NOS-1 (Osteosarcoma)
Outline: as §1

[8] = test system: Ramos-2G6-4C10 (Burkitt's Lymphoma)
Outline: as §1

[9] = test system: SNU-5 (Gastric Carcinoma)
Outline: as §1

T98G (Glioblastoma) = test system: T98G (Glioblastoma)
Outline: as §1

Row | SMILES | Bliss excess (42-MG-BA (Glioblastoma)) | Bliss excess [1] | Bliss excess [2] | Bliss excess [3] | Bliss excess [4] | Bliss excess [5] | Bliss excess [6] | Bliss excess [7] | Bliss excess (NOS-1 (Osteosarcoma)) | Bliss excess [8] | Bliss excess [9] | Bliss excess (T98G (Glioblastoma))
1 | CN(CCO)CC[C@H](CSc1ccccc1)Nc1ccc(S(=O)(=O)NC(=O)c2ccc(N3CCC([C@@H](O)c4ccccc4-c4ccc(Cl)cc4)CC3)cc2)cc1S(=O)(=O)C(F)(F)F [AZD4320] + C1CN(CCC1(C(=O)N[C@@H](CCO)C2=CC=C(C=C2)Cl)N)C3=NC=NC4=C3C=CN4 [Capivasertib] (first compound max 1 µM, 7x7, partner max 3 µM) | -0.0479 | 0.0185 | -0.0187 | -0.0198 | -0.0353 | -0.0696 | -0.0442 | -0.0255 | -0.0386 | 0.038 | -0.0453 | -0.0371
2 | Cc1cc2ncnn2cc1Nc1ncc2c(n1)n(C1CCOCC1)c(=O)n2C [AZD7648] + CN(C)CCCOc1ccc(-c2ccc3ncc4c(c3c2)n(C2CCOCC2)c(=O)n4C)cn1 [AZD0156] (first compound max 10 µM, 7x7, partner max 1 µM) | -0.0313 | 0.0614 | 0.0046 | -0.088 | 0.0393 | -0.0068 | -0.0656 | 0.0042 | 0.0258 | 0.0236 | 0.0166 | -0.0317
3 | COc1cccc(OCCCN)c1-c1cc(Nc2cnc(C#N)cn2)n[nH]1 [Prexasertib] + C=CCn1c(=O)c2cnc(Nc3ccc(N4CCN(C)CC4)cc3)nc2n1-c1cccc(C(C)(C)O)n1 [AZD1775] (first compound max 1 µM, partner max 1 µM) | 0.0835 | 0.0573 | 0.104 | -0.0242 | 0.0747 | 0.0142 | 0.0331 | 0.116 | 0.0924 | 0.112 | 0.0491 | -0.0232
4 | Cn1cnc2c(F)c(Nc3ccc(Br)cc3Cl)c(C(=O)NOCCO)cc21 [Selumetinib] + C[C@@H]1COCCN1C2=NC(=NC(=C2)C3(CC3)[S@](=N)(=O)C)C4=C5C=CNC5=NC=C4 [AZD6738] (first compound max 10 µM, 7x7, partner max 10 µM) | -0.0061 | -0.0087 | -0.0475 | 0.009 | 0.0891 | 0.0227 | -0.0396 | -0.0543 | 0.043 | -0.0714 | 0.0524 | -0.0174
5 | CC(=O)c1c(C)c2cnc(Nc3ccc(N4CCNCC4)cn3)nc2n(C2CCCC2)c1=O [Palbociclib] + Cc1c2c(nn1C)CSCc1cc(n(C)n1)CSc1cc(c3ccccc3c1)OCCCc1c(C(=O)O)n(C)c3c-2c(Cl)ccc13 [AZD5991] (first compound max 10 µM, 7x7, partner max 1 µM) | -0.0391 | -0.0112 | -0.0554 | 0.0238 | -0.0184 | -0.0686 | -0.0789 | -0.0142 | -0.0006 | -0.0226 | -0.0206 | 0.0003
6 | CC(=O)c1c(C)c2cnc(Nc3ccc(N4CCNCC4)cn3)nc2n(C2CCCC2)c1=O [Palbociclib] + CC1(C)CCC(CN2CCN(c3ccc(C(=O)NS(=O)(=O)c4ccc(NCC5CCOCC5)c([N+](=O)[O-])c4)c(Oc4cnc5[nH]ccc5c4)c3)CC2)=C(c2ccc(Cl)cc2)C1 [Venetoclax] (first compound max 10 µM, 7x7, partner max 1 µM) | -0.0093 | 0.005 | -0.0322 | -0.0447 | -0.0281 | -0.0442 | -0.0751 | -0.0262 | 0.0157 | -0.106 | 0.0453 | -0.0075
7 | COc1nnc2ccc(N3CCC(c4ccc(OCCN5CCN(C)C(=O)[C@H]5C)cc4)CC3)nn12 [AZD5153] + CCN(CCO)CCCOc1ccc2c(Nc3cc(CC(=O)Nc4cccc(F)c4)[nH]n3)ncnc2c1 [AZD2811] (first compound max 1 µM, 7x7, partner max 1 µM) | -0.0476 | -0.0369 | -0.0014 | -0.0345 | -0.0595 | -0.0709 | -0.0448 | -0.0264 | -0.0391 | -0.0004 | -0.0501 | -0.014
8 | CN(CCO)CC[C@H](CSc1ccccc1)Nc1ccc(S(=O)(=O)NC(=O)c2ccc(N3CCC([C@@H](O)c4ccccc4-c4ccc(Cl)cc4)CC3)cc2)cc1S(=O)(=O)C(F)(F)F [AZD4320] + Cn1cnc2c(F)c(Nc3ccc(Br)cc3Cl)c(C(=O)NOCCO)cc21 [Selumetinib] (first compound max 1 µM, 7x7, partner max 3 µM) | 0.0167 | 0.129 | -0.0533 | -0.0492 | 0.0393 | 0.0306 | 0.0835 | -0.0178 | 0.0796 | 0.138 | 0.118 | 0.0206
9 | CN(CCO)CC[C@H](CSc1ccccc1)Nc1ccc(S(=O)(=O)NC(=O)c2ccc(N3CCC([C@@H](O)c4ccccc4-c4ccc(Cl)cc4)CC3)cc2)cc1S(=O)(=O)C(F)(F)F [AZD4320] + C=CCn1c(=O)c2cnc(Nc3ccc(N4CCN(C)CC4)cc3)nc2n1-c1cccc(C(C)(C)O)n1 [AZD1775] (first compound max 1 µM, partner max 1 µM) | -0.027 | -0.0261 | -0.0023 | 0.022 | -0.0368 | -0.0172 | -0.034 | -0.0075 | 0.0894 | 0.0808 | 0.0426 | 0.0317
10 | CN(CCO)CC[C@H](CSc1ccccc1)Nc1ccc(S(=O)(=O)NC(=O)c2ccc(N3CCC([C@@H](O)c4ccccc4-c4ccc(Cl)cc4)CC3)cc2)cc1S(=O)(=O)C(F)(F)F [AZD4320] + C[C@@H](Nc1cc(F)cc(F)c1)c1cc(C(=O)N(C)C)cc2c(=O)cc(N3CCOCC3)oc12 [AZD8186] (first compound max 1 µM, 7x7, partner max 3 µM) | 0.0453 | -0.0261 | 0.0421 | -0.0314 | 0.0664 | -0.0712 | 0.0094 | 0.0075 | -0.0096 | 0.175 | 0.0726 | 0.0151
11 | CC(=O)c1c(C)c2cnc(Nc3ccc(N4CCNCC4)cn3)nc2n(C2CCCC2)c1=O [Palbociclib] + Cn1cnc2c(F)c(Nc3ccc(Br)cc3Cl)c(C(=O)NOCCO)cc21 [Selumetinib] (first compound max 10 µM, 7x7, partner max 10 µM) | -0.0776 | -0.0082 | 0.0927 | 0.0135 | 0.0396 | 0.0617 | -0.0238 | -0.0574 | -0.0152 | -0.023 | 0.0031 | -0.0103
12 | Cc1nc(Nc2ncc(C(=O)Nc3c(C)cccc3Cl)s2)cc(N2CCN(CCO)CC2)n1 [Dasatinib] + CC(=O)Nc1cccc(-n2c(=O)n(C3CC3)c(=O)c3c(Nc4ccc(I)cc4F)n(C)c(=O)c(C)c32)c1 [Trametinib] (first compound max 2 µM, 7x7, partner max 1 µM) | -0.023 | 0.0053 | 0.0676 | -0.0526 | 0.0075 | -0.0902 | -0.0072 | -0.0328 | 0.0688 | 0 | -0.0708 | 0.0187
13 | Cc1cc2ncnn2cc1Nc1ncc2c(n1)n(C1CCOCC1)c(=O)n2C [AZD7648] + C[C@@H]1COCCN1C2=NC(=NC(=C2)C3(CC3)[S@](=N)(=O)C)C4=C5C=CNC5=NC=C4 [AZD6738] (first compound max 10 µM, 7x7, partner max 10 µM) | -0.0581 | 0.0328 | 0.0001 | -0.0744 | 0.0353 | 0.0356 | -0.0263 | 0.0193 | 0.0761 | 0.0129 | 0.0337 | 0.0339
14 | CCc1c2c(nc3ccc(O)cc13)-c1cc3c(c(=O)n1C2)COC(=O)[C@]3(O)CC [SN-38] + CN(C)CCCOc1ccc(-c2ccc3ncc4c(c3c2)n(C2CCOCC2)c(=O)n4C)cn1 [AZD0156] (first compound max 0.3 µM, 7x7, partner max 1 µM) | 0.0561 | 0.0666 | 0.0488 | 0.169 | 0.0028 | -0.0071 | -0.063 | -0.0007 | -0.0111 | 0.0361 | -0.0237 | -0.03
15 | CN(C)CCCOc1ccc(-c2ccc3ncc4c(c3c2)n(C2CCOCC2)c(=O)n4C)cn1 [AZD0156] + C[C@@H]1COCCN1C2=NC(=NC(=C2)C3(CC3)[S@](=N)(=O)C)C4=C5C=CNC5=NC=C4 [AZD6738] (first compound max 1 µM, 7x7, partner max 10 µM) | 0.0224 | 0.0287 | -0.0101 | -0.0157 | 0.0118 | -0.0172 | 0.0366 | -0.0485 | -0.0241 | 0.0933 | -0.0347 | -0.0297
16 | CCN(CCO)CCCOc1ccc2c(Nc3cc(CC(=O)Nc4cccc(F)c4)[nH]n3)ncnc2c1 [AZD2811] + O=C(c1cc(Cc2n[nH]c(=O)c3ccccc23)ccc1F)N1CCN(C(=O)C2CC2)CC1 [Olaparib] (first compound max 1 µM, 7x7, partner max 10 µM) | 0.009 | 0.0678 | -0.0329 | -0.0192 | -0.0055 | -0.0217 | -0.0133 | -0.011 | 0.0085 | 0.0573 | -0.0237 | 0.0112
17 | CC1(C)CCC(CN2CCN(c3ccc(C(=O)NS(=O)(=O)c4ccc(NCC5CCOCC5)c([N+](=O)[O-])c4)c(Oc4cnc5[nH]ccc5c4)c3)CC2)=C(c2ccc(Cl)cc2)C1 [Venetoclax] + C[C@@H]1COCCN1C2=NC(=NC(=C2)C3(CC3)[S@](=N)(=O)C)C4=C5C=CNC5=NC=C4 [AZD6738] (first compound max 1 µM, 7x7, partner max 10 µM) | -0.0057 | -0.028 | -0.0248 | -0.122 | -0.037 | -0.0353 | -0.0214 | -0.0296 | -0.057 | -0.0389 | -0.0437 | -0.061
18 | CC1(C)CCC(CN2CCN(c3ccc(C(=O)NS(=O)(=O)c4ccc(NCC5CCOCC5)c([N+](=O)[O-])c4)c(Oc4cnc5[nH]ccc5c4)c3)CC2)=C(c2ccc(Cl)cc2)C1 [Venetoclax] + C1CN(CCC1(C(=O)N[C@@H](CCO)C2=CC=C(C=C2)Cl)N)C3=NC=NC4=C3C=CN4 [Capivasertib] (first compound max 1 µM, 7x7, partner max 3 µM) | -0.0239 | 0.0117 | -0.0176 | -0.0255 | -0.033 | -0.0575 | 0.0068 | -0.0063 | -0.0157 | 0.0177 | -0.0485 | -0.0382

Reference: the supplement of paper PMC11061612
